In PubChem BioAssay AID270 (DTP/NCI, 2004):
Inconclusive results are not listed.

Test system: BDF1 mice, s.c. Lewis lung carcinoma, T/C %
Test: NCI In Vivo Anticancer Drug Screen. Data for tumor model Lewis Lung Carcinoma (subcutaneous) in B6D2F1 (BDF1) mice
Protocol: The antitumor activity of compounds was measured in mice bearing transplantable tumors. Survival or tumor size were measured and the results are expressed as the measurement made in the treated group (T) divided by the measurement made in the vehicle treated control group (C). The tumor model used in this assay is Lewis Lung Carcinoma (subcutaneous) in B6D2F1 (BDF1) mice

[1] = endpoint: median survival time, dose: 50.0 mg/kg/injection, schedule: Q01DX009 (ip), vehicle: Klucel (hydroxypropylcellulose) (HPC), higher = longer survival
[2] = endpoint: median survival time, dose: 100.0 mg/kg/injection, schedule: Q01DX009 (ip), vehicle: Klucel (hydroxypropylcellulose) (HPC), higher = longer survival
[3] = endpoint: mean tumor weight, dose: 50.0 mg/kg/injection, schedule: Q01DX011 (ip), vehicle: saline, higher = larger tumour
[4] = endpoint: mean tumor weight, dose: 200.0 mg/kg/injection, schedule: Q01DX011 (ip), vehicle: saline, higher = larger tumour
[5] = endpoint: median survival time, dose: 12.5 mg/kg/injection, schedule: Q01DX009 (ip), vehicle: Klucel (hydroxypropylcellulose) (HPC), higher = longer survival
[6] = endpoint: median survival time, dose: 25.0 mg/kg/injection, schedule: Q01DX009 (ip), vehicle: Klucel (hydroxypropylcellulose) (HPC), higher = longer survival

For `CC1OC(=O)C(C(C)C)NC(=O)C(C(C)C)OC(=O)C(C(C)C)NC(=O)C(C)OC(=O)C(C(C)C)NC(=O)C(C(C)C)OC(=O)C(C(C)C)NC(=O)C(C)OC(=O)C(C(C)C)NC(=O)C(C(C)C)OC(=O)C(C(C)C)NC1=O` (stereo not drawn), the T/C (endpoint: median survival time, dose: 0.31 mg/kg/injection, schedule: Q01DX009 (ip), vehicle: saline with Tween-80, higher = longer survival) was 100 % of control, the T/C (endpoint: median survival time, dose: 0.62 mg/kg/injection, schedule: Q01DX009 (ip), vehicle: saline with Tween-80, higher = longer survival) was 103 % of control and the T/C (endpoint: median survival time, dose: 0.75 mg/kg/injection, schedule: Q01DX009 (ip), vehicle: Klucel (hydroxypropylcellulose) (HPC), higher = longer survival) was 94 % of control. For the same molecule, the T/C (endpoint: median survival time, dose: 1.25 mg/kg/injection, schedule: Q01DX009 (ip), vehicle: saline with Tween-80, higher = longer survival) was 109 % of control, the T/C (endpoint: median survival time, dose: 1.5 mg/kg/injection, schedule: Q01DX009 (ip), vehicle: Klucel (hydroxypropylcellulose) (HPC), higher = longer survival) was 86 % of control and the T/C (endpoint: median survival time, dose: 2.5 mg/kg/injection, schedule: Q01DX009 (ip), vehicle: saline with Tween-80, higher = longer survival) was 86 % of control. The T/C (endpoint: median survival time, dose: 3.0 mg/kg/injection, schedule: Q01DX009 (ip), vehicle: Klucel (hydroxypropylcellulose) (HPC), higher = longer survival) was 101 % of control, the T/C (endpoint: median survival time, dose: 6.0 mg/kg/injection, schedule: Q01DX009 (ip), vehicle: Klucel (hydroxypropylcellulose) (HPC), higher = longer survival) was 100 % of control and the T/C (endpoint: median survival time, dose: 8.0 mg/kg/injection, schedule: Q01DX009 (ip), vehicle: saline with Tween-80, higher = longer survival) was 114 % of control. The T/C (endpoint: median survival time, dose: 12.0 mg/kg/injection, schedule: Q01DX009 (ip), vehicle: saline with Tween-80, higher = longer survival) was 112 % of control, the T/C (endpoint: median survival time, dose: 15.0 mg/kg/injection, schedule: Q04DX003 (ip), vehicle: saline with Tween-80, higher = longer survival) was 106 % of control and the T/C (endpoint: median survival time, dose: 20.0 mg/kg/injection, schedule: Q01DX001 (ip), vehicle: saline with Tween-80, higher = longer survival) was 123 % of control. The T/C (endpoint: median survival time, dose: 20.0 mg/kg/injection, schedule: Q04DX003 (ip), vehicle: saline with Tween-80, higher = longer survival) was 112 % of control, the T/C (endpoint: median survival time, dose: 30.0 mg/kg/injection, schedule: Q01DX001 (ip), vehicle: saline with Tween-80, higher = longer survival) was 112 % of control and the T/C (endpoint: median survival time, dose: 30.0 mg/kg/injection, schedule: Q04DX003 (ip), vehicle: saline with Tween-80, higher = longer survival) was 115 % of control. The T/C (endpoint: median survival time, dose: 45.0 mg/kg/injection, schedule: Q01DX001 (ip), vehicle: saline with Tween-80, higher = longer survival) was 119 % of control.

`COc1cc(OC)c(OC)cc1/C=C\c1ccnc2ccccc12` was tested, and the T/C [1] was 94 % of control, the T/C [2] was 93 % of control and the T/C (endpoint: median survival time, dose: 400.0 mg/kg/injection, schedule: Q01DX009 (ip), vehicle: Klucel (hydroxypropylcellulose) (HPC), higher = longer survival) was 97 % of control.

For `CCCn1cnc2c(SCc3ccccc3Cl)nc(N)nc21`, the T/C (endpoint: mean tumor weight, dose: 25.0 mg/kg/injection, schedule: Q01DX011 (ip), vehicle: other, higher = larger tumour) was 66 % of control, the T/C (endpoint: mean tumor weight, dose: 50.0 mg/kg/injection, schedule: Q01DX011 (ip), vehicle: other, higher = larger tumour) was 102 % of control and the T/C (endpoint: mean tumor weight, dose: 100.0 mg/kg/injection, schedule: Q01DX011 (ip), vehicle: other, higher = larger tumour) was 89 % of control. The T/C (endpoint: mean tumor weight, dose: 200.0 mg/kg/injection, schedule: Q01DX011 (ip), vehicle: other, higher = larger tumour) was 65 % of control.

In the case of `CCCCCC/C=C/[N+]([O-])=NC(COC)C(C)O` (stereo not drawn), the T/C (endpoint: mean tumor weight, dose: 5.0 mg/kg/injection, schedule: Q01DX011 (ip), vehicle: carboxymethylcellulose (CMC), higher = larger tumour) is reported as 84 % of control and the T/C (endpoint: mean tumor weight, dose: 10.0 mg/kg/injection, schedule: Q01DX011 (ip), vehicle: carboxymethylcellulose (CMC), higher = larger tumour) is reported as 96 % of control.

With `CCc1ccc(NC(=O)N(CCCl)N=O)cc1` the T/C (endpoint: median survival time, dose: 1.9 mg/kg/injection, schedule: Q01DX009 (ip), vehicle: Klucel (hydroxypropylcellulose) (HPC), higher = longer survival) was 108 % of control, the T/C (endpoint: median survival time, dose: 7.5 mg/kg/injection, schedule: Q01DX009 (ip), vehicle: Klucel (hydroxypropylcellulose) (HPC), higher = longer survival) was 98 % of control and the T/C (endpoint: median survival time, dose: 15.0 mg/kg/injection, schedule: Q01DX009 (ip), vehicle: Klucel (hydroxypropylcellulose) (HPC), higher = longer survival) was 95 % of control.

In the case of `Nc1ncnc2c(C3OC(CO)C(O)C3O)[nH]nc12` (stereo not drawn), the T/C (endpoint: mean tumor weight, dose: 10.5 mg/kg/injection, schedule: Q01DX011 (ip), vehicle: carboxymethylcellulose (CMC), higher = larger tumour) is reported as 66 % of control.

With `NC(=O)NO` the T/C (endpoint: mean tumor weight (est.), dose: 100.0 mg/kg/injection, schedule: Q01DX009 (ip), vehicle: water, higher = larger tumour) was 66 % of control, the T/C (endpoint: mean tumor weight (est.), dose: 200.0 mg/kg/injection, schedule: Q01DX009 (ip), vehicle: water, higher = larger tumour) was 28 % of control and the T/C (endpoint: mean tumor weight (est.), dose: 400.0 mg/kg/injection, schedule: Q01DX009 (ip), vehicle: water, higher = larger tumour) was 33 % of control. The T/C (endpoint: mean tumor weight, dose: 25.0 mg/kg/injection, schedule: Q01DX011 (ip), vehicle: saline, higher = larger tumour) was 58 % of control, the T/C [3] was 90 % of control and the T/C (endpoint: mean tumor weight, dose: 100.0 mg/kg/injection, schedule: Q01DX011 (ip), vehicle: saline, higher = larger tumour) was 89 % of control. For the same molecule, the T/C [4] was 31 % of control, the T/C (endpoint: median survival time, dose: 2.5 mg/kg/injection, schedule: Q08HX024 (ip), vehicle: saline, higher = longer survival) was 92 % of control and the T/C (endpoint: median survival time, dose: 10.0 mg/kg/injection, schedule: Q08HX024 (ip), vehicle: Klucel (hydroxypropylcellulose) (HPC), higher = longer survival) was 181 % of control. For the same molecule, the T/C (endpoint: median survival time, dose: 20.0 mg/kg/injection, schedule: Q08HX024 (ip), vehicle: Klucel (hydroxypropylcellulose) (HPC), higher = longer survival) was 181 % of control, the T/C (endpoint: median survival time, dose: 40.0 mg/kg/injection, schedule: Q08HX024 (ip), vehicle: Klucel (hydroxypropylcellulose) (HPC), higher = longer survival) was 95 % of control and the T/C (endpoint: median survival time, dose: 40.0 mg/kg/injection, schedule: Q08HX024 (ip), vehicle: saline, higher = longer survival) was 90 % of control. The T/C (endpoint: median survival time, dose: 97.0 mg/kg/injection, schedule: Q01DX009 (ip), vehicle: saline, higher = longer survival) was 119 % of control, the T/C (endpoint: median survival time, dose: 100.0 mg/kg/injection, schedule: Q01DX009 (ip), vehicle: water, higher = longer survival) was 94 % of control and the T/C (endpoint: median survival time, dose: 200.0 mg/kg/injection, schedule: Q01DX009 (ip), vehicle: water, higher = longer survival) was 100 % of control. The T/C (endpoint: median survival time, dose: 1250.0 mg/kg/injection, schedule: Q01DX009 (ip), vehicle: saline, higher = longer survival) was 56 % of control.

`O=C(O)c1cc(O)c(O)c(O)c1` was tested, and the T/C [3] was 111 % of control, the T/C [4] was 89 % of control and the T/C (endpoint: mean tumor weight, dose: 400.0 mg/kg/injection, schedule: Q01DX011 (ip), vehicle: saline, higher = larger tumour) was 99 % of control.

For `CC1OC(OCC2OC(Oc3c(-c4ccc(O)c(O)c4)oc4cc(O)cc(O)c4c3=O)C(O)C(O)C2O)C(O)C(O)C1O` (stereo not drawn), the T/C (endpoint: mean tumor weight, dose: 62.5 mg/kg/injection, schedule: Q01DX011 (ip), vehicle: saline, higher = larger tumour) was 104 % of control, the T/C (endpoint: mean tumor weight, dose: 125.0 mg/kg/injection, schedule: Q01DX011 (ip), vehicle: saline, higher = larger tumour) was 93 % of control and the T/C (endpoint: mean tumor weight, dose: 250.0 mg/kg/injection, schedule: Q01DX011 (ip), vehicle: saline, higher = larger tumour) was 67 % of control. The T/C (endpoint: mean tumor weight, dose: 500.0 mg/kg/injection, schedule: Q01DX011 (ip), vehicle: saline, higher = larger tumour) was 52 % of control.

`O=NN(CCCl)C(=O)NCC1CCC(CNC(=O)N(CCCl)N=O)CC1` (stereo not drawn) was tested, and the T/C (endpoint: mean tumor weight, dose: 400.0 mg/kg/injection, schedule: Q01DX001 (ip), vehicle: carboxymethylcellulose (CMC), higher = larger tumour) was 50 % of control, the T/C (endpoint: mean tumor weight, dose: 600.0 mg/kg/injection, schedule: Q01DX001 (ip), vehicle: carboxymethylcellulose (CMC), higher = larger tumour) was 36 % of control and the T/C (endpoint: median survival time, dose: 3.12 mg/kg/injection, schedule: Q01DX009 (ip), vehicle: Klucel (hydroxypropylcellulose) (HPC), higher = longer survival) was 92 % of control. The T/C (endpoint: median survival time, dose: 6.25 mg/kg/injection, schedule: Q01DX009 (ip), vehicle: Klucel (hydroxypropylcellulose) (HPC), higher = longer survival) was 93 % of control, the T/C [5] was 98 % of control and the T/C [6] was 100 % of control.

With `COc1ccc(OCC(O)CN2CCN(c3ccc(Cl)cc3)CC2)cc1` (stereo not drawn) the T/C [5] was 90 % of control, the T/C [6] was 87 % of control and the T/C [1] was 96 % of control. The T/C [2] was 90 % of control and the T/C (endpoint: median survival time, dose: 200.0 mg/kg/injection, schedule: Q01DX009 (ip), vehicle: Klucel (hydroxypropylcellulose) (HPC), higher = longer survival) was 89 % of control.

`CC(=O)OCC1CCC(NC(=O)N(CCCl)N=O)CC1` (stereo not drawn) was tested, and the T/C (endpoint: median survival time, dose: 8.0 mg/kg/injection, schedule: Q01DX001 (ip), vehicle: Klucel (hydroxypropylcellulose) (HPC), higher = longer survival) was 112 % of control, the T/C (endpoint: median survival time, dose: 12.0 mg/kg/injection, schedule: Q01DX001 (ip), vehicle: Klucel (hydroxypropylcellulose) (HPC), higher = longer survival) was 124 % of control and the T/C (endpoint: median survival time, dose: 18.0 mg/kg/injection, schedule: Q01DX001 (ip), vehicle: Klucel (hydroxypropylcellulose) (HPC), higher = longer survival) was 163 % of control. The T/C (endpoint: median survival time, dose: 26.0 mg/kg/injection, schedule: Q01DX001 (ip), vehicle: Klucel (hydroxypropylcellulose) (HPC), higher = longer survival) was 160 % of control and the T/C (endpoint: median survival time, dose: 40.0 mg/kg/injection, schedule: Q01DX001 (ip), vehicle: Klucel (hydroxypropylcellulose) (HPC), higher = longer survival) was 104 % of control.
